Each structure is given as a SMILES string. Where two headings read alike, the source gives them in different places.

Assay [1] concerns the target SHP-2 enzyme (Met1-Leu525) (Homo sapiens (Human), UniProt Q06124). Kind of assay: SHP2 inhibition enzymatic assay. Format: biochemical. Particulars: read-out: SHP2wt-IC50. A digest of the protocol:
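Compounds were preincubated 30 min with 0.5 nM SHP-2 (Met1-Leu525) plus 500 nM IRS1 activating peptide (pH 7.2 HEPES, 5 mM DTT), then 75 μM DiFMUP substrate reacted 30 min at room temperature. After bpV quench, DiFMUP fluorescence gave % inhibition; four-parameter logistic fit yielded IC50.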

Assay [2] relates to ERK phosphorylation in KYSE-520 cells. As to the kind of experiment: Phospho-ERK cellular assay. Format: cell-based. To be noted: Homo sapiens, KYSE-520 cells, 2 h at 37° C., phospho-ERK1/2 (Thr202/Tyr204) TR-FRET, read-out: PERK IC50. A digest of the protocol: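 TR-FRET read-out of ERK1/2 Thr202/Tyr204 phosphorylation was taken after overnight antibody incubation at room temperature. Before that, KYSE-520 cells were treated 2 h at 37 °C with compound dilutions and lysed 30 min. Percent inhibition relative to vehicle and cell-free wells was fitted four-parametrically to give IC50.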
On the technique in general: In TR-FRET formats the signal depends on donor and acceptor labels being close together.

Where [3] appears, read: 0.5 nM SHP-2 activated by 500 nM IRS1 peptide, 75 μM DiFMUP substrate.

Chain of SHP-2 enzyme (Met1-Leu525) (Q06124 1-525): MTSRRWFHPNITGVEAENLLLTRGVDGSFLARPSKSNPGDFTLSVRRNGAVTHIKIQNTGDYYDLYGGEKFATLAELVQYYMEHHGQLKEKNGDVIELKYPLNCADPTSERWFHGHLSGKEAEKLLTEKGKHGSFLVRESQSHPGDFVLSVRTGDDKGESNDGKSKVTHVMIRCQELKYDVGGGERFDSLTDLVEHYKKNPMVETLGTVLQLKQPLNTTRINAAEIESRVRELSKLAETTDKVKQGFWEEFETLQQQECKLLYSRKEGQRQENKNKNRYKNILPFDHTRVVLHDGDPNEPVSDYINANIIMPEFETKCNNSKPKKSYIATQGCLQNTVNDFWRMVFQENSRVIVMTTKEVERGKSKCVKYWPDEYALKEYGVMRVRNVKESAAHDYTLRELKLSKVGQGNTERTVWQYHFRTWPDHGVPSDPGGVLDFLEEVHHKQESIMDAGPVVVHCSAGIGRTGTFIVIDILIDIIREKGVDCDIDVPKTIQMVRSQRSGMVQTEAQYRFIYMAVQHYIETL

With `NC[C@]1(c2ccccc2F)[C@@H]2CCN(c3cnc4nc(Sc5ccnc(-n6cccn6)c5Cl)ccc4n3)C[C@@H]21` [Example 398, ((1S,6R,7R)-3-(6-((3-chloro-2-(1H-pyrazol-1-yl)pyridin-4-yl)thio)pyrido[2,3-b]pyrazin-2-yl)-7-(2-fluorophenyl)-3-azabicyclo[4.1.0]heptan-7-yl)methanamine], the 50% inhibitory concentration (IC50) in assay [1] (setting [3]) is < 500 nM; in assay [2] (KYSE-520, 2 h) it was < 1000 nM.

On to `Cn1ccc(-c2n[nH]c3nc(N4CC[C@@H]5[C@H](C4)[C@@]5(CN)c4ccccc4F)cnc23)c(Cl)c1=O` [Example 269, 4-(6-((1S,6R,7R)-7-(aminomethyl)-7-(2-fluorophenyl)-3-azabicyclo[4.1.0]heptan-3-yl)-1H-pyrazolo[3,4-b]pyrazin-3-yl)-3-chloro-1-methylpyridin-2(1H)-one], for which the IC50 in assay [1] (setting [3]) is < 500 nM; in assay [2] (KYSE-520, 2 h), > 5000 nM.

Regarding `NC[C@]1(c2ccccc2F)[C@@H]2CCN(c3cnc4c(-c5ccc(OC(F)F)c6ncccc56)n[nH]c4n3)C[C@@H]21` [Example 160, ((1S,6R,7R)-3-(3-(8-(difluoromethoxy)quinolin-5-yl)-1H-pyrazolo[3,4-b]pyrazin-6-yl)-7-(2-fluorophenyl)-3-azabicyclo[4.1.0]heptan-7-yl)methanamine], the IC50 in assay [1] (setting [3]) is < 500 nM; in assay [2] (KYSE-520, 2 h), < 1000 nM.

With `Cn1cc2c(Cl)c(-c3n[nH]c4nc(N5CC[C@@H]6[C@H](C5)[C@@]6(CN)c5cc(F)cc(F)c5)n(C)c(=O)c34)ccc2n1` [Example 344, 6-((1S,6R,7R)-7-(aminomethyl)-7-(3,5-difluorophenyl)-3-azabicyclo[4.1.0]heptan-3-yl)-3-(4-chloro-2-methyl-2H-indazol-5-yl)-5-methyl-1,5-dihydro-4H-pyrazolo[3,4-d]pyrimidin-4-one], the half-inhibitory concentration (IC50) in assay [1] (setting [3]) is < 500 nM; in assay [2] (KYSE-520, 2 h), < 1000 nM.

On to `Cc1csc([C@@]2(CN)[C@@H]3CCN(c4cnc5c(-c6ccc7nn(C)cc7c6Cl)n[nH]c5n4)C[C@@H]32)n1` [Example 79, ((1S,6R,7S)-3-(3-(4-chloro-2-methyl-2H-indazol-5-yl)-1H-pyrazolo[3,4-b]pyrazin-6-yl)-7-(4-methylthiazol-2-yl)-3-azabicyclo[4.1.0]heptan-7-yl)methanamine], for which the IC50 in assay [1] (setting [3]) was < 500 nM; in assay [2] (KYSE-520, 2 h) it was < 1000 nM.

Take `NC[C@]1(c2ccccc2F)[C@@H]2CCN(c3cnc4c(-c5ccc6ncccc6c5)n[nH]c4n3)C[C@@H]21` [Example 141, ((1S,6R,7R)-7-(2-fluorophenyl)-3-(3-(quinolin-6-yl)-1H-pyrazolo[3,4-b]pyrazin-6-yl)-3-azabicyclo[4.1.0]heptan-7-yl)methanamine]: the IC50 was < 500 nM in assay [1] (setting [3]) and < 1000 nM in assay [2] (KYSE-520, 2 h).

For the compound `Cn1cc2c(Cl)c(-c3n[nH]c4nc(N5C[C@@H]6[C@H](C5)[C@@]6(CN)c5nc(Cl)cs5)n(C)c(=O)c34)ccc2n1` [Example 470, 6-((1R,5S,6r)-6-(aminomethyl)-6-(4-chlorothiazol-2-yl)-3-azabicyclo[3.1.0]hexan-3-yl)-3-(4-chloro-2-methyl-2H-indazol-5-yl)-5-methyl-1,5-dihydro-4H-pyrazolo[3,4-d]pyrimidin-4-one], the IC50 in assay [1] (setting [3]) was < 500 nM; in assay [2] (KYSE-520, 2 h), < 1000 nM.

Turning to `NC[C@]1(c2ccccc2F)[C@@H]2CCN(c3cnc4c(-c5ccc(O)c(F)c5F)n[nH]c4n3)C[C@@H]21` [Example 374, 4-(6-((1S,6R,7R)-7-(aminomethyl)-7-(2-fluorophenyl)-3-azabicyclo[4.1.0]heptan-3-yl)-1H-pyrazolo[3,4-b]pyrazin-3-yl)-2,3-difluorophenol], the IC50 in assay [1] (setting [3]) is < 500 nM; in assay [2] (KYSE-520, 2 h), < 1000 nM.

Take `NC[C@]1(c2ccccc2F)[C@@H]2CCN(c3cnc4c(-c5ccc6c(c5)S(=O)(=O)NC6=O)n[nH]c4n3)C[C@@H]21` [Example 249, 6-(6-((1S,6R,7R)-7-(aminomethyl)-7-(2-fluorophenyl)-3-azabicyclo[4.1.0]heptan-3-yl)-1H-pyrazolo[3,4-b]pyrazin-3-yl)benzo[d]isothiazol-3(2H)-one 1,1-dioxide]: the 50% inhibitory concentration (IC50) in assay [1] (setting [3]) is < 500 nM; in assay [2] (KYSE-520, 2 h), > 5000 nM.

In the case of `NC[C@]1(c2ccccc2F)[C@@H]2CCN(c3cnc4c(-c5ccc6nc(C(F)(F)F)ncc6c5)n[nH]c4n3)C[C@@H]21` [Example 309, ((1S,6R,7R)-7-(2-fluorophenyl)-3-(3-(2-(trifluoromethyl)quinazolin-6-yl)-1H-pyrazolo[3,4-b]pyrazin-6-yl)-3-azabicyclo[4.1.0]heptan-7-yl)methanamine], the IC50 was < 500 nM in assay [1] (setting [3]) and > 5000 nM in assay [2] (KYSE-520, 2 h).

For the compound `Cc1csc([C@@]2(CN)[C@@H]3CCN(c4cnc5c(-c6ccc7nn(C)c(Cl)c7c6Cl)n[nH]c5n4)C[C@@H]32)n1` [Example 445, ((1S,6R,7S)-3-(3-(3,4-dichloro-2-methyl-2H-indazol-5-yl)-1H-pyrazolo[3,4-b]pyrazin-6-yl)-7-(4-methylthiazol-2-yl)-3-azabicyclo[4.1.0]heptan-7-yl)methanamine], the half-inhibitory concentration (IC50) is < 500 nM in assay [1] (setting [3]) and < 1000 nM in assay [2] (KYSE-520, 2 h).

Consider `Cn1cc2c(Cl)c(-c3n[nH]c4nc(N5C[C@@H]6[C@H](C5)[C@@]6(CN)c5cccc(Cl)n5)cnc34)ccc2n1` [Example 494, ((1R,5S,6r)-3-(3-(4-chloro-2-methyl-2H-indazol-5-yl)-1H-pyrazolo[3,4-b]pyrazin-6-yl)-6-(6-chloropyridin-2-yl)-3-azabicyclo[3.1.0]hexan-6-yl)methanamine], for which the IC50 in assay [1] (setting [3]) was < 500 nM; in assay [2] (KYSE-520, 2 h) it was < 1000 nM.

For `Cc1nccc(Sc2cnc(N3CC[C@@H]4[C@H](C3)[C@@]4(CN)c3ccccc3F)cn2)c1F` [Example 423, ((1S,6R,7R)-3-(5-((3-fluoro-2-methylpyridin-4-yl)thio)pyrazin-2-yl)-7-(2-fluorophenyl)-3-azabicyclo[4.1.0]heptan-7-yl)methanamine], the IC50 is < 500 nM in assay [1] (setting [3]) and > 5000 nM in assay [2] (KYSE-520, 2 h).

With `Cc1csc(C2(CN)C3CCN(c4cnc(Sc5ccnc(N)c5Cl)c(N)n4)CC32)n1` (stereo not drawn) [Example 74, 3-((2-amino-3-chloropyridin-4-yl)thio)-6-(7-(aminomethyl)-7-(4-methylthiazol-2-yl)-3-azabicyclo[4.1.0]heptan-3-yl)pyrazin-2-amine], the IC50 is < 500 nM in assay [1] and 1000 to 5000 nM in assay [2].

As for `Cc1nc2ccc(-c3n[nH]c4nc(N5C[C@@H]6[C@H](C5)[C@@]6(CN)c5ccccn5)cnc34)c(Cl)c2s1` [Example 492, ((1R,5S,6r)-3-(3-(7-chloro-2-methylbenzo[d]thiazol-6-yl)-1H-pyrazolo[3,4-b]pyrazin-6-yl)-6-(pyridin-2-yl)-3-azabicyclo[3.1.0]hexan-6-yl)methanamine], the IC50 in assay [1] (setting [3]) is < 500 nM; in assay [2] (KYSE-520, 2 h) it was < 1000 nM.

With `CN(C#N)C(=O)c1ccc(-c2n[nH]c3nc(N4CC[C@@H]5[C@H](C4)[C@@]5(CN)c4ccccc4F)cnc23)c(Cl)c1` [Example 356, 4-(6-((1S,6R,7R)-7-(aminomethyl)-7-(2-fluorophenyl)-3-azabicyclo[4.1.0]heptan-3-yl)-1H-pyrazolo[3,4-b]pyrazin-3-yl)-3-chloro-N-cyano-N-methylbenzamide], the IC50 is < 500 nM in assay [1] (setting [3]) and > 5000 nM in assay [2] (KYSE-520, 2 h).

Take `NC[C@]1(c2ccccc2F)[C@@H]2CCN(c3ncc(Sc4ccnc(N)c4Cl)n4cncc34)C[C@@H]21` [Example 135, 4-((8-((1S,6R,7R)-7-(aminomethyl)-7-(2-fluorophenyl)-3-azabicyclo[4.1.0]heptan-3-yl)imidazo[1,5-a]pyrazin-5-yl)thio)-3-chloropyridin-2-amine]: the IC50 in assay [1] (setting [3]) is > 3000 nM; in assay [2] (KYSE-520, 2 h), > 5000 nM.

For `NCC1(c2ccccn2)C2CCN(c3cnc(Sc4cccnc4C(F)(F)F)c(N)n3)CC21` (stereo not drawn) [Example 72, 6-(7-(aminomethyl)-7-(pyridin-2-yl)-3-azabicyclo[4.1.0]heptan-3-yl)-3-((2-(trifluoromethyl)pyridin-3-yl)thio)pyrazin-2-amine], the IC50 is < 500 nM in assay [1] (setting [3]) and < 1000 nM in assay [2] (KYSE-520, 2 h).

Consider `Cn1cc2c(Cl)c(-c3n[nH]c4nc(N5C[C@@H]6[C@H](C5)[C@@]6(CN)c5nccs5)cnc34)ccc2n1` [Example 486, ((1R,5S,6r)-3-(3-(4-chloro-2-methyl-2H-indazol-5-yl)-1H-pyrazolo[3,4-b]pyrazin-6-yl)-6-(thiazol-2-yl)-3-azabicyclo[3.1.0]hexan-6-yl)methanamine], for which the IC50 in assay [1] (setting [3]) is < 500 nM; in assay [2] (KYSE-520, 2 h), < 1000 nM.

As for `NC[C@]1(c2ccccc2F)[C@@H]2CCN(c3cnc4c(-c5ccnc(-n6cccn6)c5Cl)n[nH]c4n3)C[C@@H]21` [Example 451, ((1S,6R,7R)-3-(3-(3-chloro-2-(1H-pyrazol-1-yl)pyridin-4-yl)-1H-pyrazolo[3,4-b]pyrazin-6-yl)-7-(2-fluorophenyl)-3-azabicyclo[4.1.0]heptan-7-yl)methanamine], the IC50 in assay [1] (setting [3]) was < 500 nM; in assay [2] (KYSE-520, 2 h), < 1000 nM.

On to `Cc1cc([C@@]2(CN)[C@@H]3CCN(c4cnc5c(-c6cnc7cc(C(F)(F)F)ccc7c6)n[nH]c5n4)C[C@@H]32)no1` [Example 152, ((1S,6R,7S)-7-(5-methylisoxazol-3-yl)-3-(3-(7-(trifluoromethyl)quinolin-3-yl)-1H-pyrazolo[3,4-b]pyrazin-6-yl)-3-azabicyclo[4.1.0]heptan-7-yl)methanamine], for which the half-inhibitory concentration (IC50) in assay [1] (setting [3]) is < 500 nM; in assay [2] (KYSE-520, 2 h), < 1000 nM.

By IC50 is commonly meant the concentration that gives 50% inhibition.

The values are drawn from patent publication US20240109900A1, “AZABICYCLIC SHP2 INHIBITORS” (IRBM S.P.A., priority 2021, published 2024).
